One assay relates to PC-3. Nature of the assay: Antiproliferative activity against human PC-3 cells. Format: functional, cell-based.
The nature of assay [1]: Antiproliferative activity against human 3AO cells. Format: functional, cell-based.
Another assay has as its system MCF7. Nature of the assay: Antiproliferative activity against human MCF7 cells. Type of assay: functional, cell-based.
For another assay, the system named is BEAS-2B. Put plainly: Antiproliferative activity against human BEAS-2B cells. Format: functional, cell-based.
The next assay deals with HeLa. Nature of the assay: Antiproliferative activity against human HeLa cells. Format: functional, cell-based.
For assay [2], the target named is Vascular endothelial growth factor receptor 2 (Homo sapiens, UniProt P35968). Nature of the assay: Inhibition of VEGFR2 (unknown origin) at 1 uM relative to control.
Another assay concerns K562. Nature of the assay: Antiproliferative activity against human K562 cells. Format: functional, cell-based.
For assay [3], the target named is T1, Glutamate receptor ionotropic AMPA (Homo sapiens, UniProt P42261+P42262+P42263+P48058). Nature of the assay: Displacement of [3H]AMPA from AMPA receptor (unknown origin). Type of assay: protein-complex assay. A general note: Loss of bound radioactivity is the signal in a displacement assay; it reports binding, not function.
A short description of assay [4]: Displacement of [3H]glycine from AMPA receptor (unknown origin). Type of assay: protein-complex assay, Homo sapiens.
Assay [5] deals with Glutamate [NMDA] receptor. Put plainly: Displacement of [3H]MK-801 from NMDA receptor (unknown origin). Type of assay: protein-complex assay, Homo sapiens.
Assay [6] addresses T1, Glutamate receptor ionotropic AMPA. Put plainly: Displacement of [3H]kainic acid from AMPA receptor (unknown origin). Type of assay: protein-complex assay.
In another assay the test system is Bacillus subtilis. Put plainly: Antibacterial activity against Bacillus subtilis assessed as diameter zone of inhibition. Type of assay: functional.
For assay [7], the system named is Staphylococcus aureus. Put plainly: Antibacterial activity against Staphylococcus aureus assessed as diameter zone of inhibition. Type of assay: functional.
The subject of a further assay is Enterococcus faecalis. Nature of the assay: Antibacterial activity against Enterococcus faecalis. Type of assay: functional.
In another assay the test system is Aspergillus fumigatus. Put plainly: Antifungal activity against Aspergillus fumigatus. Format: functional.
In the next assay the test system is Klebsiella pneumoniae. Put plainly: Antibacterial activity against Klebsiella pneumoniae. Type of assay: functional.
The test system of assay [8] is Escherichia coli. Nature of the assay: Antibacterial activity against Escherichia coli. Type of assay: functional.
The subject of the next assay is Candida albicans. Nature of the assay: Antifungal activity against Candida albicans. Type of assay: functional.
For assay [9], the system named is Mycobacterium tuberculosis. Nature of the assay: Antimycobacterial activity against Mycobacterium tuberculosis H37Rv. Type of assay: functional.
The subject of assay [10] is Staphylococcus aureus. Put plainly: Antibacterial activity against Staphylococcus aureus. Type of assay: functional.
Assay [11] deals with Escherichia coli. Nature of the assay: Antibacterial activity against Escherichia coli W3110. Format: functional.
In the next assay the test system is Pseudomonas aeruginosa. Put plainly: Antibacterial activity against Pseudomonas aeruginosa. Format: functional.
A short description of assay [12]: Inhibition of Escherichia coli topoisomerase 4.
The subject of a further assay is Streptococcus pneumoniae. Nature of the assay: Antibacterial activity against Streptococcus pneumoniae. Format: functional.
Assay [13] concerns the target Epidermal growth factor receptor (Homo sapiens, UniProt P00533). Put plainly: Inhibition of wild-type EGFR (unknown origin).
In the next assay the test system is WI-38. Nature of the assay: Antiproliferative activity against human WI-38 cells. Format: functional, cell-based.
The test system of a further assay is HepG2. Put plainly: Antiproliferative activity against human HepG2 cells. Type of assay: functional, cell-based.
The target in assay [14] is Epidermal growth factor receptor (Homo sapiens, UniProt P00533, L858R). Put plainly: Inhibition of EGFR L858R mutant (unknown origin).
Another assay deals with HCT-116. Put plainly: Antiproliferative activity against human HCT-116 cells. Format: functional, cell-based.
The next assay has as its system Mesenteric vein. Put plainly: Vasorelaxant activity in dog mesenteric veins. Format: functional, tissue-based. To be noted: Canis lupus familiaris.
Assay [15] concerns the target 3',5'-cyclic phosphodiesterase. Put plainly: Inhibition of cAMP-specific 3',5'-cyclic phosphodiesterase (unknown origin). Format: protein assay, Homo sapiens.
The test system of the next assay is Coronary artery. Put plainly: Vasorelaxant activity in dog coronary arteries. Format: functional, tissue-based. To be noted: Canis lupus familiaris.
Assay [16] can be described thus: Inhibition of cGMP-dependent 3',5'-cyclic phosphodiesterase (unknown origin). Further details: species or system Homo sapiens.
The next assay has as its system Papillary muscle. Put plainly: Positive inotropic activity in ferret papillary muscle assessed as contractile force measured as CFC20. Type of assay: functional, Mustela putorius furo.
In assay [17] the test system is Pyricularia grisea. Nature of the assay: Antifungal activity against Magnaporthe grisea GD08-T19 assessed as diameter zone of inhibition. Type of assay: functional.
The subject of assay [18] is Pyricularia grisea. Nature of the assay: Antifungal activity against Magnaporthe grisea GD08-T19 at 50 ug/ml. Format: functional. To be noted: dose 50 µg/ml.
Assay [19] relates to Escherichia coli. Put plainly: Antibacterial activity against Escherichia coli assessed as diameter zone of inhibition. Type of assay: functional.
Assay [20] in a line: Antioxidant activity assessed as NO radical scavenging activity. Format: functional.
Assay [21] in a line: Antioxidant activity assessed as DPPH radical scavenging activity. Format: functional. For orientation: Loss of DPPH colour is used to gauge radical scavenging.
The nature of assay [22]: Antioxidant activity assessed as H2O2 radical scavenging activity. Type of assay: functional.
A short description of assay [23]: Inhibition of ALR2 (unknown origin). Also on record: species or system Homo sapiens.
The nature of assay [24]: Inhibition of lipid peroxidation at 100 uM by measuring MDA concentration. Format: functional.
Assay [25] is described as follows: Inhibition of ALR1 (unknown origin) relative to control. To be noted: Homo sapiens; concentration not given here. Further details: concentration or dose not given beside the values.
Assay [26] in a line: Antioxidant activity assessed as DPPH radical scavenging activity at 100 uM. Format: functional.

A word on the IC50: it is the point on the concentration scale where inhibition reaches its midpoint. Broadly, the inhibition is the percentage by which the read-out fell short of the control. As usually defined, the Ki is the equilibrium dissociation constant of an inhibitor or competing ligand from its target. The term MIC denotes the smallest concentration in the dilution series that meets the test's criterion for growth inhibition. For orientation: EC50 means the concentration at which the effect is half-maximal.

Converted amounts (≈) assume the structure as drawn.

Chain of Vascular endothelial growth factor receptor 2 (P35968 whole entry): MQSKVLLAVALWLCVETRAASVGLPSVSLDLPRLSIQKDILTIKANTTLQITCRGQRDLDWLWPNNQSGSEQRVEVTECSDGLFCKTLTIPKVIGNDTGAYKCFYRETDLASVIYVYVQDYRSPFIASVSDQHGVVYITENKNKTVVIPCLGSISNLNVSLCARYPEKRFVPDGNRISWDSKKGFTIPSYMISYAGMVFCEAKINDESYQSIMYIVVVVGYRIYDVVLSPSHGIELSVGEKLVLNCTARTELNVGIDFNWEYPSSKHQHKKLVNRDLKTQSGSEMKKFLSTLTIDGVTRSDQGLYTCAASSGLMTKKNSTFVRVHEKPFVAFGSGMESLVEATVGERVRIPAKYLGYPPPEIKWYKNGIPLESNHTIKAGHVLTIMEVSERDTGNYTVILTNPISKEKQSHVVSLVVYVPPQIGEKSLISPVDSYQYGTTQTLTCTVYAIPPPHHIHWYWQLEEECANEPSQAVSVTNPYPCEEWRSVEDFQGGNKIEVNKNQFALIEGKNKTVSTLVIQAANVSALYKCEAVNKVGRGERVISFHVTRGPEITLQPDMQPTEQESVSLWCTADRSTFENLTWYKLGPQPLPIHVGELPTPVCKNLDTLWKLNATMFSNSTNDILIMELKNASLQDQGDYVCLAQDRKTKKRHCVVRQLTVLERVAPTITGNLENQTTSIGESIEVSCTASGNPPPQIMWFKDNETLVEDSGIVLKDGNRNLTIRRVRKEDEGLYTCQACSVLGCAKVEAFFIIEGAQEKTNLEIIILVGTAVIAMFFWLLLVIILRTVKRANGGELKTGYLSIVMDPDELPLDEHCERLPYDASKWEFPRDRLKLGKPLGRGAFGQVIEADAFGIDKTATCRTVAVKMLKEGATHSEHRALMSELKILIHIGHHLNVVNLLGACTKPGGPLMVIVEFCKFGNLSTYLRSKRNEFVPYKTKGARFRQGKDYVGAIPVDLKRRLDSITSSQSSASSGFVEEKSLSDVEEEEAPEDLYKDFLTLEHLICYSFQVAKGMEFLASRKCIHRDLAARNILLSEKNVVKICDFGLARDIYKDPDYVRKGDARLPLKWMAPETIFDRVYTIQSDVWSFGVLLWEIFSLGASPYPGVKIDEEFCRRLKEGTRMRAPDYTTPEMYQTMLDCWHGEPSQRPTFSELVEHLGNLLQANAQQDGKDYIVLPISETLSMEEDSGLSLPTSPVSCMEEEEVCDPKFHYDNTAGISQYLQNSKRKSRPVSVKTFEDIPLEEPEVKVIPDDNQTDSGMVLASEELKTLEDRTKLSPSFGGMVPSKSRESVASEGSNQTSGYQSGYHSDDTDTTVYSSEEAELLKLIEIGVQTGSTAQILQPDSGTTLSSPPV
Chain of Epidermal growth factor receptor (Homo sapiens, UniProt P00533, L858R) (P00533 25-1210 L858R limits assumed): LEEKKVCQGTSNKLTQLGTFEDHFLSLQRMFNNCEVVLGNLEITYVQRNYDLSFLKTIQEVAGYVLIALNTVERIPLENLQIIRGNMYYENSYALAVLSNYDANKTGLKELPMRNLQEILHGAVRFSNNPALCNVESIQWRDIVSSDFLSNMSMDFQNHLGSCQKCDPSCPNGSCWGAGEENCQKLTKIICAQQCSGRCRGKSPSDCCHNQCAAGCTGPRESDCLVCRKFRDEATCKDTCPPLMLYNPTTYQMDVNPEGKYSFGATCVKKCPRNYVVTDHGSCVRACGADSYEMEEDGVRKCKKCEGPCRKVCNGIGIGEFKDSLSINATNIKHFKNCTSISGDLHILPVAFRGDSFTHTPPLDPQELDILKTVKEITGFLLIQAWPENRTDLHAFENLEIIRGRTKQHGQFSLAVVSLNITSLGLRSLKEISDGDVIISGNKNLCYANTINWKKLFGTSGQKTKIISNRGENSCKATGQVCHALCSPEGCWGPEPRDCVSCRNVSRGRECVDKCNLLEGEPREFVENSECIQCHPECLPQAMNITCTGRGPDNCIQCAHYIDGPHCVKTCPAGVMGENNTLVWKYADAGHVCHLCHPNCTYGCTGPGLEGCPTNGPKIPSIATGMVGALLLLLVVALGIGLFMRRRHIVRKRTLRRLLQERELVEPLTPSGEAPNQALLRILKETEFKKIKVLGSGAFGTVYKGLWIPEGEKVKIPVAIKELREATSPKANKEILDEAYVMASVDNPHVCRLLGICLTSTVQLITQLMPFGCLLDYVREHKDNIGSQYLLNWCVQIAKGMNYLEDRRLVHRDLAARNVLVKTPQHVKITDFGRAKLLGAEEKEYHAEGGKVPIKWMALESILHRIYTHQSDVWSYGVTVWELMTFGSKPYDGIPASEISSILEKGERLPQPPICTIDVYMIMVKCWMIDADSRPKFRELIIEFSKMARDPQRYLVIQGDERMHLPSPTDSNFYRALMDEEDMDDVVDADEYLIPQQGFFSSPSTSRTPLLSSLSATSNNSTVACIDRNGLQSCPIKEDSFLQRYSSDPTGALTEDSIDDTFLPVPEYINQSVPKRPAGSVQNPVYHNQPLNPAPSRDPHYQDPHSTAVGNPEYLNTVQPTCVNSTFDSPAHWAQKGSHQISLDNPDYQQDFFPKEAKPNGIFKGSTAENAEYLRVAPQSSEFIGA
Chain of Epidermal growth factor receptor (Homo sapiens, UniProt P00533) (P00533 whole entry): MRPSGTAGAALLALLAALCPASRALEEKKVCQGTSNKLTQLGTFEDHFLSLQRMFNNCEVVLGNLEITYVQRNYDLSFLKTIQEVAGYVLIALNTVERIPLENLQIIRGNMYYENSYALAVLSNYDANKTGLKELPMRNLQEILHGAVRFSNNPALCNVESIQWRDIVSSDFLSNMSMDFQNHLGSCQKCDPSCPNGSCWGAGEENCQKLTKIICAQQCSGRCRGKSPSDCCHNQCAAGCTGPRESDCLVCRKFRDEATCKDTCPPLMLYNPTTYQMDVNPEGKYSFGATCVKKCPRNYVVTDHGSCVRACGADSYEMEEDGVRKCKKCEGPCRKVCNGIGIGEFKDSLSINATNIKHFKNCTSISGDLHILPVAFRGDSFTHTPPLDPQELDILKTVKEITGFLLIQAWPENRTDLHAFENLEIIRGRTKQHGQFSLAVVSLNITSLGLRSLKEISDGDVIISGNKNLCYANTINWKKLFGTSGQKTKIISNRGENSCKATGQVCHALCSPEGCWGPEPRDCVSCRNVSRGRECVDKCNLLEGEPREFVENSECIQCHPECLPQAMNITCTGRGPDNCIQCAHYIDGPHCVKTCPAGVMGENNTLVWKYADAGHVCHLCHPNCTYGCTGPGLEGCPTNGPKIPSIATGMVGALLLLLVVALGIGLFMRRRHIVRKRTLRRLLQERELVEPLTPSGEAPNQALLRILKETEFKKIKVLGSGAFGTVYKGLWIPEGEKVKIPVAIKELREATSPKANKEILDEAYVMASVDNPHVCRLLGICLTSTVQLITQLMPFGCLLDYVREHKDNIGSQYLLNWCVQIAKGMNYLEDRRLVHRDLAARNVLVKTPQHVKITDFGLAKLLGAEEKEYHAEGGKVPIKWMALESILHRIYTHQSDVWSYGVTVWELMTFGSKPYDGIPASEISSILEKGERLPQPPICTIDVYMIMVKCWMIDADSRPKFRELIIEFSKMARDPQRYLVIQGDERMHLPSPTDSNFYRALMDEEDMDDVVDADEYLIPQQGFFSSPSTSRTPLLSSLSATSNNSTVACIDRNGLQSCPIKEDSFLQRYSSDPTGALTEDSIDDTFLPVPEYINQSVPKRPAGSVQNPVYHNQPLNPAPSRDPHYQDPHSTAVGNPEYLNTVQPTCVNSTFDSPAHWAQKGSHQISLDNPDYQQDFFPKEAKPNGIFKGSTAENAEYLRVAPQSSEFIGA

As for `O=C(Cn1c(=O)c(/C=C/c2ccncc2)nc2ccccc21)Nc1ccc(F)cc1`, the IC50 with PC-3 was 59.9 µM; in [1], greater than 100 µM; with MCF7, 49 µM; with BEAS-2B, greater than 100 µM; in the assay with HeLa, greater than 100 µM; with K562, greater than 100 µM. The compound also showed an inhibition in assay [2] of 6%.
Regarding `O=C(O)c1cc2c3cc(Cl)c(Cl)cc3[nH]c(=O)n2n1`, the Ki was found to be 2.4 µM in assay [3] and 0.16 µM in [4]. Also, the half-maximal inhibitory concentration (IC50) came to 0.89 µM in assay [5] and 41 µM in assay [6].
`O=c1[nH]c2ccccc2nc1Cc1nnc(S)o1`: the “diameter of the inhibition zone (DIZ)” value was found to be 10 mm with Bacillus subtilis and 11 mm with Staphylococcus aureus [7].
Consider `COc1ccc(/C(C)=N/NC(=O)Cn2c(=O)c(C)nc3ccccc32)cc1`, for which the MIC with Enterococcus faecalis came out at 131 µg/mL (≈ 360 µM); in the assay with Aspergillus fumigatus, 8.06 µg/mL (≈ 22.1 µM); in the assay with Klebsiella pneumoniae it was 125 µg/mL (≈ 343 µM); against Escherichia coli [8], 125 µg/mL (≈ 343 µM); in the assay with Candida albicans, 250 µg/mL (≈ 686 µM); in assay [9], 25 µg/mL (≈ 68.6 µM). The minimal inhibitory concentration (MIC) against Staphylococcus aureus [10] turned out to be 62.5 µg/mL (≈ 172 µM).
With `COc1ccc2ncc(=O)n(CCN3CCC(NCc4cc5c(cn4)OCCO5)CC3)c2c1`, the minimum inhibitory concentration (MIC) stood at 0.5 µg/mL (≈ 1.11 µM) against Escherichia coli [11], 4 µg/mL (≈ 8.86 µM) in the assay on Pseudomonas aeruginosa, 0.02 µg/mL (≈ 0.0443 µM) against Staphylococcus aureus [10] and 0.06 µg/mL (≈ 0.133 µM) against Streptococcus pneumoniae. In assay [12], this compound displayed a half-inhibitory concentration (IC50) of 0.005 µM.
With `COC(=O)CCc1nc2ccc(Br)cc2[nH]c1=O`, the 50% inhibitory concentration (IC50) with MCF7 stood at 17.9 µM; in assay [13], 0.957 µM; in the assay on WI-38, 142 µM; with HepG2 it was 15.6 µM; in assay [14], 0.0754 µM; in the assay with HCT-116 it was 13.8 µM.
For the compound `C/C(=N\NC(=O)Cn1c(=O)c(C)nc2ccccc21)c1ccc(O)cc1`, the minimal inhibitory concentration (MIC) turned out to be 16.1 µg/mL (≈ 45.8 µM) with Enterococcus faecalis; 4 µg/mL (≈ 11.4 µM) in the assay with Aspergillus fumigatus; 125 µg/mL (≈ 357 µM) against Klebsiella pneumoniae; 125 µg/mL (≈ 357 µM) in the assay with Escherichia coli [8]; 4 µg/mL (≈ 11.4 µM) with Candida albicans; 25 µg/mL (≈ 71.4 µM) in assay [9]. The same compound returned a minimum inhibitory concentration (MIC) in the assay with Staphylococcus aureus [10] of 250 µg/mL (≈ 714 µM).
Regarding `Oc1nc2cccnc2n2ccnc12`, the half-maximal effective concentration (EC50) in the assay with Mesenteric vein was 10 µM; with Coronary artery, 11 µM. The IC50 came out at 44 µM in assay [15] and 27 µM in assay [16]. In the assay on Papillary muscle, the Activity is 2.2 µM.
For `Cc1ccc(S(=O)(=O)NCCCC(CC(F)(F)F)c2nc3ccccc3n(C)c2=O)cc1` (stereo not drawn), the “diameter of the inhibition zone (DIZ)” value in the assay with Pyricularia grisea [17] amounted to 47 mm. Moreover, the Activity in the assay with Pyricularia grisea [18] is on record as 23%.
Regarding `Cn1c(=O)c(C(CCCOc2cc(=O)oc3ccccc23)CC(F)(F)F)nc2ccccc21` (stereo not drawn), the “diameter of the inhibition zone (DIZ)” value with Pyricularia grisea [17] is given as 48 mm. In addition, the Activity in the assay with Pyricularia grisea [18] worked out at 23%.
As for `O=C(CC1=NC2CCCCC2NC1=O)NNC(=S)Nc1ccccc1` (stereo not drawn), the results for the “diameter of the inhibition zone (DIZ)” value with Escherichia coli [19], in the assay on Bacillus subtilis and in the assay with Staphylococcus aureus [7] were 12 mm, 18 mm and 16 mm, respectively.
As to `Cn1c(=O)c(C(CCCOC(=O)c2cccs2)CC(F)(F)F)nc2ccccc21` (stereo not drawn), the “diameter of the inhibition zone (DIZ)” value in the assay with Pyricularia grisea [17] is listed as 47 mm. Also, in the assay on Pyricularia grisea [18], the Activity is given as 23%.
As for `C/C(=N\NC(=O)Cn1c(=O)c(C)nc2ccccc21)c1cccnc1`, the MIC came out at 16.1 µg/mL (≈ 47.9 µM) in the assay with Enterococcus faecalis; 8.06 µg/mL (≈ 24 µM) in the assay with Aspergillus fumigatus; 125 µg/mL (≈ 373 µM) against Klebsiella pneumoniae; 125 µg/mL (≈ 373 µM) in the assay on Escherichia coli [8]; 16.1 µg/mL (≈ 47.9 µM) in the assay with Candida albicans; 25 µg/mL (≈ 74.5 µM) in assay [9]. In the assay with Staphylococcus aureus [10], this compound had an MIC of 250 µg/mL (≈ 745 µM).
Take `Cc1ccc(-n2cc(COc3ccc(/C=N/NC(=O)Cn4c(=O)c(C)nc5ccccc54)cc3)nn2)cc1`: the IC50 in assay [20] is 48.07 µg/mL (≈ 94.7 µM); in assay [21] it was 26.04 µg/mL (≈ 51.3 µM); in assay [22], 52.08 µg/mL (≈ 103 µM).
As for `O=C(Cn1c(=O)c(/C=C/c2ccncc2)nc2ccccc21)Nc1ccc(Cl)cc1`, the IC50 in the assay on PC-3 is greater than 100 µM; in assay [1], greater than 100 µM; with MCF7 it was greater than 100 µM; in the assay on BEAS-2B, greater than 100 µM; with HeLa it was greater than 100 µM; in the assay on K562, 50.4 µM. The inhibition in assay [2] came out at 44%.
The compound `O=C(O)Cn1c(=O)c(Oc2ccc(O)cc2)nc2cc(F)ccc21` had a 50% inhibitory concentration (IC50) in assay [23] of 0.0196 µM. Besides, the inhibition was found to be 14.3% in [24] and 11.8% in [25]. Also, the Activity in assay [26] worked out at 23.7%.

Source of the values: ChEMBL document CHEMBL5113380, “Functionalized quinoxalinones as privileged structures with broad-ranging pharmacological activities” (Eur J Med Chem, 2022).
